This is an account of results in ChEMBL document CHEMBL3856200, “Isolation and Structure of Cancer Cell Growth Inhibitory Tetracyclic Triterpenoids from the Zimbabwean Monadenium lugardae” (2016).

Common to all, as to assay type: functional
Experiment [1] can be described thus: Cytotoxicity against mouse P388 cells assessed as growth inhibition after 48 hrs by coulter particle counting method. The following applies: P388, 48 h, read-out: ED50 (the source's name).
Experiment [2] can be described thus: Cytotoxicity against human BxPC3 cells assessed as growth inhibition after 48 hrs by sulforhodamine B assay. The following applies: BXPC-3, 48 h.
A short description of experiment [3]: Cytotoxicity against human MCF7 cells assessed as growth inhibition after 48 hrs by sulforhodamine B assay. To be noted: MCF7, 48 h.
A short description of experiment [4]: Cytotoxicity against human SF268 cells assessed as growth inhibition after 48 hrs by sulforhodamine B assay. To be noted: SF-268, 48 h.
Experiment [5] is described as follows: Cytotoxicity against human NCI-H460 cells assessed as growth inhibition after 48 hrs by sulforhodamine B assay. To be noted: NCI-H460, 48 h.
The nature of experiment [6]: Cytotoxicity against human KM20L2 cells assessed as growth inhibition after 48 hrs by sulforhodamine B assay. To be noted: KM-20L2, 48 h.
Experiment [7] can be described thus: Cytotoxicity against human DU145 cells assessed as growth inhibition after 48 hrs by sulforhodamine B assay. The following applies: DU-145, 48 h.

Structures are written as SMILES. Converted amounts (≈) assume the structure as drawn.

As to `C[C@@H](C/C=C/C(C)(C)O)[C@H]1CC[C@@]2(C)C3=C(C(=O)C[C@@]12C)[C@@]1(C)CC[C@H](O)C(C)(C)[C@@H]1CC3`, the EC50 in experiment [1] is more than 10 µg/mL. The GI50 in experiment [2], in experiment [3], in experiment [4], in experiment [5], in experiment [6] and in experiment [7] was more than 1 µg/mL throughout.

Consider `C=C(C)[C@@H](O)CC[C@H](C)[C@@H]1CC=C2[C@]3(C)CC[C@H]4C(C)(C)[C@@H](O)CC[C@]4(C)[C@H]3CC[C@]21C`, for which the EC50 in experiment [1] is more than 10 µg/mL. The GI50 stood at 0.83 µg/mL (≈ 1.87 µM) in experiment [2]; 0.79 µg/mL (≈ 1.78 µM) in experiment [3]; 0.33 µg/mL (≈ 0.745 µM) in experiment [4]; 0.91 µg/mL (≈ 2.06 µM) in experiment [5]; 0.71 µg/mL (≈ 1.6 µM) in experiment [6]; 0.65 µg/mL (≈ 1.47 µM) in experiment [7].

Turning to `C[C@H](C/C=C/C(C)(C)O)[C@H]1CC[C@@]2(C)C3=C(CC[C@]12C)[C@@]1(C)CC[C@H](O)C(C)(C)[C@@H]1CC3`, in experiment [1], the EC50 was more than 10 µg/mL. The GI50 in experiment [2] is 1.8 µg/mL (≈ 4.07 µM); in experiment [3] it was 2 µg/mL (≈ 4.52 µM); in experiment [4], 1.9 µg/mL (≈ 4.29 µM); in experiment [5] it was 1.9 µg/mL (≈ 4.29 µM); in experiment [6], 1.8 µg/mL (≈ 4.07 µM); in experiment [7], 1.9 µg/mL (≈ 4.29 µM).

For the compound `C=C(C)[C@H](O)CC[C@H](C)[C@@H]1CC=C2[C@]3(C)CC[C@H]4C(C)(C)[C@@H](O)CC[C@]4(C)[C@H]3CC[C@]21C`, in experiment [1], the EC50 was more than 10 µg/mL. For the same compound, the GI50 in experiment [2] is 0.2 µg/mL (≈ 0.452 µM); in experiment [3] it was 0.68 µg/mL (≈ 1.54 µM); in experiment [4], 0.36 µg/mL (≈ 0.813 µM); in experiment [5] it was 0.19 µg/mL (≈ 0.429 µM); in experiment [6] it was more than 1 µg/mL; in experiment [7], 0.58 µg/mL (≈ 1.31 µM).

Regarding `C=C(C)C(O)CC[C@@H](C)[C@@H]1CC[C@]2(C)C3=C(CC[C@@]12C)[C@@]1(C)CC[C@H](O)C(C)(C)[C@@H]1CC3` (some centres not stated), the EC50 in experiment [1] is more than 10 µg/mL. The GI50 in experiment [2] came out at 1.5 µg/mL (≈ 3.39 µM); in experiment [3] it was 2.5 µg/mL (≈ 5.65 µM); in experiment [4], 1.4 µg/mL (≈ 3.16 µM); in experiment [5], 1.7 µg/mL (≈ 3.84 µM); in experiment [6], 7 µg/mL (≈ 15.8 µM); in experiment [7], 1.5 µg/mL (≈ 3.39 µM).

On to `C[C@H](C/C=C/C(C)(C)O)[C@@H]1CC[C@]2(C)C3=C(CC[C@@]12C)[C@@]1(C)CC[C@H](O)C(C)(C)[C@@H]1CC3`, for which, in experiment [1], the EC50 was more than 10 µg/mL. Besides, the GI50 turned out to be 1.8 µg/mL (≈ 4.07 µM) in experiment [2]; 2.1 µg/mL (≈ 4.74 µM) in experiment [3]; 2.2 µg/mL (≈ 4.97 µM) in experiment [4]; 1.9 µg/mL (≈ 4.29 µM) in experiment [5]; 2 µg/mL (≈ 4.52 µM) in experiment [6]; 1.9 µg/mL (≈ 4.29 µM) in experiment [7].
